Results published in ChEMBL document CHEMBL5150065, “Design, synthesis, and bioevaluation of imidazo [1,2-a] pyrazine derivatives as tubulin polymerization inhibitors with potent anticancer activities” (Bioorg Med Chem, 2022).
Activity calls are given as the source filed them. No cut-off for these calls is given here.

Key:
HepG2 = test: Antiproliferative activity against human HepG2 cells assessed as inhibition of cell growth incubated for 48 hrs by MTT assay; type: functional, cell-based; settings: HepG2, 48 h
HCT-116 [1] = test: Antiproliferative activity against human HCT-116 cells assessed as inhibition of cell growth incubated for 48 hrs by MTT assay; type: functional, cell-based; settings: HCT-116, 48 h
A549 = test: Antiproliferative activity against human A549 cells assessed as inhibition of cell growth incubated for 48 hrs by MTT assay; type: functional, cell-based; settings: A549, 48 h
MDA-MB-231 = test: Antiproliferative activity against human MDA-MB-231 cells assessed as inhibition of cell growth incubated for 48 hrs by MTT assay; type: functional, cell-based; settings: MDA-MB-231, 48 h
HCT-116 [2] = test: Induction of cell cycle arrest in human HCT-116 cells assessed as G1 phase cells at 20 nM measured after 48 hrs by propidium iodide/RNase staining based flow cytometry analysis (reference value: 61.51 %); type: functional
HCT-116 [3] = test: Induction of cell cycle arrest in human HCT-116 cells assessed as S phase cells at 20 nM measured after 48 hrs by propidium iodide/RNase staining based flow cytometry analysis (reference value: […] %); type: functional
HCT-116 [4] = test: Induction of cell cycle arrest in human HCT-116 cells assessed as increase in G2/M phase cells at 20 nM measured after 48 hrs by propidium iodide/RNase staining based flow cytometry analysis (reference value: […] %); type: functional
Tubulin (Sus scrofa) = Tubulin (Sus scrofa) (UniProt P02554+P02550); test: (§1) Inhibition of pig brain tubulin polymerization in the presence of GTP by spectrophotometric analysis; settings: DDE = dose-dependent effect
Sequence of Tubulin (Sus scrofa) (P02550 whole entry, looked up): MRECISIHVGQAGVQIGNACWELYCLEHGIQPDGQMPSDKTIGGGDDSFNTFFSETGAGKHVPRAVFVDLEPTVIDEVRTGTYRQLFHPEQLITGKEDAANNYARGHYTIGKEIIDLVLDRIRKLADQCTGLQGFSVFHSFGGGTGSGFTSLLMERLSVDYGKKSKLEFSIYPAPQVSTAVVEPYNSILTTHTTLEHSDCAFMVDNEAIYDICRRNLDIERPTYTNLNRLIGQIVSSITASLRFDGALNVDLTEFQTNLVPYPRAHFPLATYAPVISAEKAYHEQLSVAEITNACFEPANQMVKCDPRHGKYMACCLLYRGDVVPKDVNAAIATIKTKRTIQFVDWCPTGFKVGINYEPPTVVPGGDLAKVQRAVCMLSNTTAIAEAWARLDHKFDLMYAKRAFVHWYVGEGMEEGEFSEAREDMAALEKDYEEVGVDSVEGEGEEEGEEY
Sequence of Tubulin (Sus scrofa) (P02554 whole entry, looked up): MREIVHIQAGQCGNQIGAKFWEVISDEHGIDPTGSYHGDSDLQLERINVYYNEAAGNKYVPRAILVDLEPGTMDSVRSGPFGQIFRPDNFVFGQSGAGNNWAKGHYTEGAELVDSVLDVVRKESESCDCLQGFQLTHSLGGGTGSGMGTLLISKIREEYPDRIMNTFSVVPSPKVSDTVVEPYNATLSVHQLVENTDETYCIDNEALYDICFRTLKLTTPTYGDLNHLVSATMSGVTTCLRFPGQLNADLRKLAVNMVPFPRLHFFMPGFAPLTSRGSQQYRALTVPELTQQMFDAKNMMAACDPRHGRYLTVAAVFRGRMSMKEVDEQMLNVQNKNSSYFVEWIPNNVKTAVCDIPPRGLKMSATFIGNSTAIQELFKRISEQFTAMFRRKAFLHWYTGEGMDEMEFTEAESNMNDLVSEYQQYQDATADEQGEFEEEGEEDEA

Tubulin = Tubulin (Sus scrofa, UniProt P02554+P02550); test: as §1
HCT-116 [5] = test: Induction of apoptosis in human HCT-116 cells assessed as total apoptotic cells at 20 nM incubated for 48 hrs by Annexin-V FITC/PI staining based flow cytometry analysis (reference value: 5.76 %); type: functional
HCT-116 [6] = test: Induction of apoptosis in human HCT-116 cells assessed as total apoptotic cells at 40 nM incubated for 48 hrs by Annexin-V FITC/PI staining based flow cytometry analysis (reference value: 5.76 %); type: functional
HCT-116 [7] = test: Induction of apoptosis in human HCT-116 cells assessed as total apoptotic cells at 80 nM incubated for 48 hrs by Annexin-V FITC/PI staining based flow cytometry analysis (reference value: 5.76 %); type: functional
HCT-116 [8] = test: Induction of apoptosis in human HCT-116 cells assessed as total apoptotic cells at 120 nM incubated for 48 hrs by Annexin-V FITC/PI staining based flow cytometry analysis (reference value: 5.76 %); type: functional
HCT-116 [9] = test: Induction of cell cycle arrest in human HCT-116 cells assessed as G1 phase cells at 40 nM measured after 48 hrs by propidium iodide/RNase staining based flow cytometry analysis (reference value: 61.51 %); type: functional
HCT-116 [10] = test: Induction of cell cycle arrest in human HCT-116 cells assessed as S phase cells at 40 nM measured after 48 hrs by propidium iodide/RNase staining based flow cytometry analysis (reference value: […] %); type: functional
HCT-116 [11] = test: Induction of cell cycle arrest in human HCT-116 cells assessed as increase in G2/M phase cells at 40 nM measured after 48 hrs by propidium iodide/RNase staining based flow cytometry analysis (reference value: […] %); type: functional
HCT-116 [12] = test: Induction of cell cycle arrest in human HCT-116 cells assessed as G1 phase cells at 80 nM measured after 48 hrs by propidium iodide/RNase staining based flow cytometry analysis (reference value: 61.51 %); type: functional
HCT-116 [13] = test: Induction of cell cycle arrest in human HCT-116 cells assessed as S phase cells at 80 nM measured after 48 hrs by propidium iodide/RNase staining based flow cytometry analysis (reference value: […] %); type: functional
HCT-116 [14] = test: Induction of cell cycle arrest in human HCT-116 cells assessed as increase in G2/M phase cells at 80 nM measured after 48 hrs by propidium iodide/RNase staining based flow cytometry analysis (reference value: […] %); type: functional
HCT-116 [15] = test: Induction of cell cycle arrest in human HCT-116 cells assessed as G1 phase cells at 120 nM measured after 48 hrs by propidium iodide/RNase staining based flow cytometry analysis (reference value: 61.51 %); type: functional
HCT-116 [16] = test: Induction of cell cycle arrest in human HCT-116 cells assessed as S phase cells at 120 nM measured after 48 hrs by propidium iodide/RNase staining based flow cytometry analysis (reference value: […] %); type: functional
HCT-116 [17] = test: Induction of cell cycle arrest in human HCT-116 cells assessed as increase in G2/M phase cells at 120 nM measured after 48 hrs by propidium iodide/RNase staining based flow cytometry analysis (reference value: […] %); type: functional
HCT-116 [18] = test: Inhibition of cell migration in human HCT-116 cells assessed as suppression of wound closure at 10 nM incubated for 48 hrs by wound healing assay relative to control; type: functional
HCT-116 [19] = test: Inhibition of cell migration in human HCT-116 cells assessed as suppression of wound closure at 20 nM incubated for 48 hrs by wound healing assay relative to control; type: functional
HCT-116 [20] = test: Inhibition of cell migration in human HCT-116 cells assessed as suppression of wound closure at 40 nM incubated for 48 hrs by wound healing assay relative to control; type: functional
HCT-116 [21] = test: Inhibition of cell migration in human HCT-116 cells assessed as suppression of wound closure at 80 nM incubated for 48 hrs by wound healing assay relative to control; type: functional
Tubulin (Homo sapiens) [22] = biological target: T1, Tubulin (Homo sapiens) (UniProt P68371+Q9H4B7+P0DPH7+P68366+Q13509+Q71U36+P04350+Q3ZCM7+P07437+P68363+Q9BQE3+Q6PEY2+Q13885+Q9BVA1+Q9BUF5); test: Induction of microtubule disruption in human HCT-116 cells assessed as short microtubules at 20 to 60 nM incubated for 48 hrs by DAPI staining based confocal microscopic immunofluorescence analysis; type: cell-based; settings: dose 20-60 nM
Tubulin (Homo sapiens) [23] = biological target: T1, Tubulin (Homo sapiens); test: Induction of microtubule disruption in human HCT-116 cells assessed as disintegrated microtubules at 20 to 60 nM incubated for 48 hrs by DAPI staining based confocal microscopic immunofluorescence analysis; type: cell-based; settings: dose 20-60 nM

Question: For COc1cc(C(=O)c2cn3ccnc(-c4ccc5[nH]ccc5c4)c3n2)cc(OC)c1OC, which IC50 (HepG2) is on record?
Answer: Its IC50 is > 10000 nM.

Question: And the IC50 (HCT-116 [1])?
Answer: Its IC50 is 689 nM.

Question: What about the IC50 (A549) of the same compound?
Answer: Its IC50 is > 10000 nM.

Question: What about the IC50 (MDA-MB-231) of the same compound?
Answer: The IC50 was > 10000 nM.

Question: How did the IC50 (HepG2) turn out when COc1cc(-c2nccn3cc(-c4ccc(F)cc4)nc23)cc(OC)c1OC was run?
Answer: The IC50 was 217 nM.

Question: What about the IC50 (HCT-116 [1]) of the same compound?
Answer: Its IC50 is 263 nM.

Question: What about the IC50 (A549) of the same compound?
Answer: Its IC50 is 137 nM.

Question: What about the IC50 (MDA-MB-231) of the same compound?
Answer: Its IC50 is 401 nM.

Question: For COc1ccc(-c2cn3ccnc(-c4cc(OC)c(OC)c(OC)c4)c3n2)cc1O, which IC50 (HepG2) is on record?
Answer: The IC50 was 87 nM.

Question: And the IC50 (HCT-116 [1])?
Answer: Its IC50 is 74 nM.

Question: And the IC50 (A549)?
Answer: The IC50 was > 10000 nM.

Question: And the IC50 (MDA-MB-231)?
Answer: The IC50 was > 10000 nM.

Question: What does the source list for COc1cc(C(=O)c2cn3ccnc(-c4ccc(F)cc4)c3n2)cc(OC)c1OC?
Answer: IC50 (HepG2): > 10000 nM; IC50 (HCT-116 [1]): > 10000 nM; IC50 (A549): > 10000 nM; IC50 (MDA-MB-231): > 10000 nM

Question: With COc1cc(-c2nccn3cc(-c4ccccc4)nc23)cc(OC)c1OC as the compound, how does the IC50 (HepG2) read?
Answer: Its IC50 is 267 nM.

Question: And the IC50 (HCT-116 [1])?
Answer: The IC50 was 266 nM.

Question: What about the IC50 (A549) of the same compound?
Answer: The IC50 was 378 nM.

Question: What about the IC50 (MDA-MB-231) of the same compound?
Answer: The IC50 was 364 nM.

Question: What does the source list for COc1cc2c(c(OC)c1OC)-c1ccc(OC)c(=O)cc1[C@@H](NC(C)=O)CC2 [COLCHICINE]?
Answer: IC50 (HepG2): 54 nM; IC50 (HCT-116 [1]): 11 nM; IC50 (A549): 184 nM; IC50 (MDA-MB-231): 176 nM; Activity (HCT-116 [2]): 24.07%; Activity (HCT-116 [3]): 15.12%; Activity (HCT-116 [4]): 60.81%

Question: Which results are given for COc1cc(-c2nccn3cc(-c4ccc(N)cc4)nc23)cc(OC)c1OC?
Answer: IC50 (HepG2): 252 nM; IC50 (HCT-116 [1]): 158 nM; IC50 (A549): 287 nM; IC50 (MDA-MB-231): 294 nM

Question: How did the IC50 (HepG2) turn out when COc1ccn2cc(C(=O)c3cc(OC)c(OC)c(OC)c3)nc2c1 was run?
Answer: The IC50 was 4140 nM.

Question: What about the IC50 (HCT-116 [1]) of the same compound?
Answer: The IC50 was 6520 nM.

Question: What about the IC50 (A549) of the same compound?
Answer: The IC50 was > 10000 nM.

Question: And the IC50 (MDA-MB-231)?
Answer: Its IC50 is > 10000 nM.

Question: Which results are given for COc1cc(C(=O)c2cn3c(C(C)C)cccc3n2)cc(OC)c1OC?
Answer: IC50 (HepG2): > 10000 nM; IC50 (HCT-116 [1]): > 10000 nM; IC50 (A549): > 10000 nM; IC50 (MDA-MB-231): > 10000 nM

Question: Which results are given for COc1cc(-c2nccn3cc(-c4ccc5[nH]ccc5c4)nc23)cc(OC)c1OC?
Answer: IC50 (HepG2): 146 nM; IC50 (HCT-116 [1]): 23 nM; IC50 (A549): 154 nM; IC50 (MDA-MB-231): 74 nM; inhibition (Tubulin (Sus scrofa)): Dde; IC50 (Tubulin): 45700 nM; Activity (HCT-116 [5]): 6.25%; Activity (HCT-116 [6]): 29.53%; Activity (HCT-116 [7]): 37.2%; Activity (HCT-116 [8]): 50.07%; Activity (HCT-116 [2]): 61.42%; Activity (HCT-116 [3]): 17.47%; Activity (HCT-116 [4]): 21.11%; Activity (HCT-116 [9]): 60.42%; Activity (HCT-116 [10]): 21.98%; Activity (HCT-116 [11]): 17.6%; Activity (HCT-116 [12]): 11.9%; Activity (HCT-116 [13]): 8.87%; Activity (HCT-116 [14]): 79.23%; Activity (HCT-116 [15]): 8.17%; Activity (HCT-116 [16]): 12.16%; Activity (HCT-116 [17]): 79.67%; inhibition at 0.01 µM (HCT-116 [18]): 30.8%; inhibition at 0.02 µM (HCT-116 [19]): 55%; inhibition at 0.04 µM (HCT-116 [20]): 56.8%; inhibition at 0.08 µM (HCT-116 [21]): 60.6%; Activity (Tubulin (Homo sapiens) [22]): Active; Activity (Tubulin (Homo sapiens) [23]): Active

Question: What does the source list for COc1cc(C(=O)c2cn3cc(Cl)cc(C(F)(F)F)c3n2)cc(OC)c1OC?
Answer: IC50 (HepG2): > 10000 nM; IC50 (HCT-116 [1]): > 10000 nM; IC50 (A549): > 10000 nM; IC50 (MDA-MB-231): > 10000 nM

Question: With COc1cc(C(=O)c2cn3cc(Br)nc(Cl)c3n2)cc(OC)c1OC as the compound, how does the IC50 (HepG2) read?
Answer: The IC50 was 5120 nM.

Question: And the IC50 (HCT-116 [1])?
Answer: Its IC50 is 1620 nM.

Question: What about the IC50 (A549) of the same compound?
Answer: Its IC50 is 8260 nM.

Question: And the IC50 (MDA-MB-231)?
Answer: Its IC50 is 6760 nM.

Question: With COc1cc(-c2nccn3cc(-c4ccc([N+](=O)[O-])cc4)nc23)cc(OC)c1OC as the compound, how does the IC50 (HepG2) read?
Answer: The IC50 was > 10000 nM.

Question: And the IC50 (HCT-116 [1])?
Answer: The IC50 was > 10000 nM.

Question: What about the IC50 (A549) of the same compound?
Answer: Its IC50 is > 10000 nM.

Question: What about the IC50 (MDA-MB-231) of the same compound?
Answer: The IC50 was > 10000 nM.
